Measurements: US20220279826A1, “OFF-FLAVOR SUPPRESSING AGENT” (AJINOMOTO CO., INC., priority 2019, published 2022)

Legend:
[1] = Sensory evaluation in Japanese noodle soup base solution with potassium chloride (0.1 g) (Experimental Example 4); conditions: for off-taste suppressing effect: Japanese noodle soup base solution, potassium chloride 0.1 g; for intensity of off-tastes (bitter taste, metallic taste, harsh taste, astringent taste) derived from potassium chloride: base solution of Table 18
Description: Potassium chloride (0.1 g) was added to a commercially available Japanese noodle soup base (manufactured by Yamaki Co., Ltd.) (11.1 g), and dissolved by adding hot water ([…]) to prepare a base solution.
Each compound shown in the following Table 18 was added to the base solution prepared above so as to achieve the concentration (addition concentration) shown in the following Table 18 to prepare each evaluation sample.
(§1) Based on the following evaluation criteria, a panel of two experts determined by consensus the intensity of off-tastes (bitter taste, metallic taste, harsh taste, astringent taste) derived from potassium chloride in each evaluation sample, by reference to each potassium chloride aqueous solution adjusted to 0.1 wt % or 0.05 wt %.

[2] = Sensory evaluation in ramen noodle soup solution with potassium chloride (Experimental Example 3); conditions: for off-taste suppressing effect: Ramen noodle soup solution with 0.8 wt % potassium chloride; for intensity of off-tastes (bitter taste, metallic taste, harsh taste, astringent taste) derived from potassium chloride: base solutions of Tables 15 to 17 (ramen noodle soup, chicken broth, potage)
Description: (§2) As shown in the following (1) to (3) below, 0.8 wt % of potassium chloride was added to a food base powder corresponding to 0.5 wt % of sodium chloride to prepare each base solution having an off-taste derived from potassium chloride.
Potassium chloride (0.8 g) was added to a soup powder (1.1 g) of a commercially available instant ramen noodle (manufactured by SANYO FOODS Co., Ltd., trade name “Sapporo Ichiban Shouyuaji”), hot water (98.1 g) was added to dissolve the mixture to prepare a base solution (ramen noodle soup solution).
(§3) Each compound shown in the following Tables 15 to 17 was added to each base solution (ramen noodle soup solution, chicken broth solution, potage solution) so as to achieve the concentration (addition concentration) shown in the following Tables 15 to 17 to prepare each evaluation sample.
(§4) By a method similar to that in Experimental Example 1, a panel of two experts determined the intensity of off-tastes (bitter taste, metallic taste, harsh taste, astringent taste) derived from potassium chloride in each evaluation sample.

[3] = Sensory evaluation in chicken broth solution with potassium chloride (Experimental Example 3); conditions: chicken broth solution with 0.8 wt % potassium chloride
Description: as §2
Potassium chloride (0.8 g) was added to a commercially available powdered chicken broth mix (manufactured by Ajinomoto Co., Inc., trade name “Marutorigara Soup”) (1.0 g), hot water (98.2 g) was added to dissolve the mixture to prepare a base solution (chicken broth soup solution).
as §3, §4

[4] = Sensory evaluation in Japanese noodle soup base solution with potassium chloride (0.2 g) (Experimental Example 5); conditions: for off-taste suppressing effect: Japanese noodle soup base solution, potassium chloride 0.2 g; for intensity of off-tastes (bitter taste, metallic taste, harsh taste, astringent taste) derived from potassium chloride: base solution of Table 19
Description: Potassium chloride (0.2 g) was added to a commercially available Japanese noodle soup base (manufactured by Yamaki Co., Ltd.) (11.1 g), and dissolved by adding hot water (88.7 g) to prepare a base solution.
Each compound shown in the following Table 19 was added to the base solution prepared above so as to achieve the concentration (addition concentration) shown in the following Table 19 to prepare each evaluation sample.
as §1, with “0.2 wt %, 0.15” for “0.1”, “0.1” for “0.05”

[5] = addition concentration 1000 weight ppb (1000 weight ppm with respect to potassium chloride)
[6] = addition concentration 2000 weight ppb (2000 weight ppm with respect to potassium chloride)
[7] = addition concentration 100 ppb (12.5 weight ppm with respect to potassium chloride)
[8] = addition concentration 100 weight ppb (50 weight ppm with respect to potassium chloride)
[9] = addition concentration 10 ppb (1.25 weight ppm with respect to potassium chloride)
[10] = addition concentration 1 ppm (125 weight ppm with respect to potassium chloride)

| Compound | off-taste suppressing effect [1, 5] | off-taste suppressing effect [1, 6] | intensity of off-tastes (bitter taste, metallic taste, harsh taste, astringent taste) derived from potassium chloride [1] | intensity of off-tastes (bitter taste, metallic taste, harsh taste, astringent taste) derived from potassium chloride [2] | off-taste suppressing effect [4, 8] | intensity of off-tastes (bitter taste, metallic taste, harsh taste, astringent taste) derived from potassium chloride [4] | off-taste suppressing effect [2, 9] | off-taste suppressing effect [3, 9] | further results |
| --- | --- | --- | --- | --- | --- | --- | --- | --- | --- |
| CC(=O)c1ccc(C)o1 [2-acetyl-5-methylfuran] | + (intensity of the same level as potassium chloride aqueous solution with potassium chloride concentration of not less than 0.05 wt % and less than 0.1 wt %) | ++ (intensity of the same level as potassium chloride aqueous solution with potassium chloride concentration of less than 0.05 wt %) | decreased | – | – | – | – | – | – |
| CC(=O)c1ccco1 [2-acetylfuran] | – | – | – | decreased | ++ (intensity of the same level as potassium chloride aqueous solution with potassium chloride concentration of not less than 0.1 wt % and less than 0.15 wt %) | decreased | – | – | off-taste suppressing effect [2, 7]: +++ (intensity of the same level as potassium chloride aqueous solution with potassium chloride concentration of not less than 0.65 wt % and less than 0.7 wt %); off-taste suppressing effect [3, 7]: ++ (intensity of the same level as potassium chloride aqueous solution with potassium chloride concentration of not less than 0.7 wt % and less than 0.75 wt %) |
| CC1OCCC1=O (stereo not shown) [2-methyltetrahydrofuran-3-one] | – | – | – | – | + (intensity of the same level as potassium chloride aqueous solution with potassium chloride concentration of not less than 0.15 wt % and less than 0.2 wt %) | decreased | – | – | – |
| CC1=C(O)C(=O)CC1 [cyclotene] | – | – | – | decreased | – | decreased | +++ (intensity of the same level as potassium chloride aqueous solution with potassium chloride concentration of not less than 0.65 wt % and less than 0.7 wt %) | +++ (intensity of the same level as potassium chloride aqueous solution with potassium chloride concentration of not less than 0.65 wt % and less than 0.7 wt %) | off-taste suppressing effect ([4]; addition concentration 25 weight ppb (12.5 weight ppm with respect to potassium chloride)): +++ (intensity of the same level as potassium chloride aqueous solution with potassium chloride concentration of less than 0.1 wt %) |
| O=Cc1ccco1 [furfural, Furfural] | – | – | – | decreased | – | decreased | ++ (intensity of the same level as potassium chloride aqueous solution with potassium chloride concentration of not less than 0.7 wt % and less than 0.75 wt %) | +++ (intensity of the same level as potassium chloride aqueous solution with potassium chloride concentration of not less than 0.65 wt % and less than 0.7 wt %) | off-taste suppressing effect ([4]; addition concentration 50 weight ppb (25 weight ppm with respect to potassium chloride)): +++ (intensity of the same level as potassium chloride aqueous solution with potassium chloride concentration of less than 0.1 wt %) |
| CCC(=O)O [propionic acid] | + (intensity of the same level as potassium chloride aqueous solution with potassium chloride concentration of not less than 0.05 wt % and less than 0.1 wt %) | ++ (intensity of the same level as potassium chloride aqueous solution with potassium chloride concentration of less than 0.05 wt %) | decreased | decreased | – | decreased | – | – | off-taste suppressing effect [2, 10]: ++ (intensity of the same level as potassium chloride aqueous solution with potassium chloride concentration of not less than 0.7 wt % and less than 0.75 wt %); off-taste suppressing effect [3, 10]: +++ (intensity of the same level as potassium chloride aqueous solution with potassium chloride concentration of not less than 0.65 wt % and less than 0.7 wt %); off-taste suppressing effect ([4]; addition concentration 1000 weight ppb (500 weight ppm with respect to potassium chloride)): ++ (intensity of the same level as potassium chloride aqueous solution with potassium chloride concentration of not less than 0.1 wt % and less than 0.15 wt %) |
